Reference: the supplement of paper PMC4862054

Assays:
Assay in all cases: normalised viability (% of control), CellTiter-Blue; higher = more viable cells (about 100 = DMSO control)
MDA-MB-468 [1] = conditions: incubation time: 72 h
How it was run: (§1)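 Compound dissolved in 5 µl medium was pre-loaded into 384-well plates, and breast cancer cell lines in 20 µl suspension were seeded on top and incubated 72 h. After adding 2.5 µl CellTiter-Blue reagent for 2 h at 37 °C, fluorescence was read at 560/590 nm. Plates were normalised to vehicle (100) and a positive kill control (0), with Z'-factor quality control. Each value is normalised viability at a single listed concentration from the series.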

SK-BR-3 [2] = conditions: incubation time: 72 h
How it was run: as §1

CAL-120 [3] = conditions: incubation time: 72 h
How it was run: as §1

BT-549 [4] = conditions: incubation time: 72 h
How it was run: as §1

Hs578T [5] = conditions: incubation time: 72 h
How it was run: as §1

CAL-85-1 [6] = conditions: incubation time: 72 h
How it was run: as §1

MDA-MB-231 [7] = conditions: incubation time: 72 h
How it was run: as §1

HCC1599 [8] = conditions: incubation time: 72 h
How it was run: as §1

MDA-MB-453 [9] = conditions: incubation time: 72 h
How it was run: as §1

HCC1143 [10] = conditions: incubation time: 72 h
How it was run: as §1

DU-4475 [11] = conditions: incubation time: 72 h
How it was run: as §1

MDA-MB-436 [12] = conditions: incubation time: 72 h
How it was run: as §1

CAL-148 [13] = conditions: incubation time: 72 h
How it was run: as §1

BT-474 [14] = conditions: incubation time: 72 h
How it was run: as §1

CAL-51 [15] = conditions: incubation time: 72 h
How it was run: as §1

HCC1937 [16] = conditions: incubation time: 72 h
How it was run: as §1

HDQ-P1 [17] = conditions: incubation time: 72 h
How it was run: as §1

MFM-223 [18] = conditions: incubation time: 72 h
How it was run: as §1

MDA-MB-468 [19] = conditions: 100 nM; incubation time: 72 h
Description: (§2)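 DSRT, CellTiter-Blue viability, 72 h incubation. Signal is normalised to DMSO and benzethonium chloride controls. Value is the normalised response at dose 3.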

SK-BR-3 [20] = conditions: 100 nM; incubation time: 72 h
Description: as §2

CAL-120 [21] = conditions: 100 nM; incubation time: 72 h
Description: as §2

BT-549 [22] = conditions: 100 nM; incubation time: 72 h
Description: as §2

Hs578T [23] = conditions: 100 nM; incubation time: 72 h
Description: as §2

CAL-85-1 [24] = conditions: 10 nM; incubation time: 72 h
Description: as §2

MDA-MB-231 [25] = conditions: 100 nM; incubation time: 72 h
Description: as §2

HCC1599 [26] = conditions: 100 nM; incubation time: 72 h
Description: as §2

MDA-MB-453 [27] = conditions: 10 nM; incubation time: 72 h
Description: as §2

HCC1143 [28] = conditions: 100 nM; incubation time: 72 h
Description: as §2

DU-4475 [29] = conditions: 10 nM; incubation time: 72 h
Description: as §2

MDA-MB-436 [30] = conditions: 100 nM; incubation time: 72 h
Description: as §2

CAL-148 [31] = conditions: 10 nM; incubation time: 72 h
Description: as §2

BT-474 [32] = conditions: 100 nM; incubation time: 72 h
Description: as §2

CAL-51 [33] = conditions: 10 nM; incubation time: 72 h
Description: as §2

HCC1937 [34] = conditions: 100 nM; incubation time: 72 h
Description: as §2

HDQ-P1 [35] = conditions: 10 nM; incubation time: 72 h
Description: as §2

MFM-223 [36] = conditions: 100 nM; incubation time: 72 h
Description: as §2

How did the normalised viability (MDA-MB-468 [1]; 10 nM) turn out when C[C@@H](CN1CC(=O)NC(=O)C1)N1CC(=O)NC(=O)C1 [Dexrazoxane] was run?
The normalised viability was 101%.

What about the normalised viability (MDA-MB-468 [1]; 1000 nM) of the same molecule?
Its normalised viability is 97.4%.

What about the normalised viability (MDA-MB-468 [1]; 10000 nM) of the same molecule?
Its normalised viability is 100%.

And the normalised viability (SK-BR-3 [2]; 10 nM)?
The normalised viability was 93.8%.

What about the normalised viability (SK-BR-3 [2]; 1000 nM) of the same molecule?
The normalised viability was 105%.

What about the normalised viability (SK-BR-3 [2]; 10000 nM) of the same molecule?
Its normalised viability is 103%.

What about the normalised viability (CAL-120 [3]; 10 nM) of the same molecule?
The normalised viability was 90.1%.

And the normalised viability (CAL-120 [3]; 1000 nM)?
Its normalised viability is 100%.

And the normalised viability (CAL-120 [3]; 10000 nM)?
Its normalised viability is 100%.

What about the normalised viability (BT-549 [4]; 10 nM) of the same molecule?
Its normalised viability is 87.2%.

What about the normalised viability (BT-549 [4]; 1000 nM) of the same molecule?
The normalised viability was 79.2%.

And the normalised viability (BT-549 [4]; 10000 nM)?
The normalised viability was 76.8%.

And the normalised viability (Hs578T [5]; 10 nM)?
The normalised viability was 87.7%.

What about the normalised viability (Hs578T [5]; 1000 nM) of the same molecule?
The normalised viability was 88.8%.

What about the normalised viability (Hs578T [5]; 10000 nM) of the same molecule?
Its normalised viability is 92.1%.

And the normalised viability (CAL-85-1 [6]; 3 nM)?
The normalised viability was 98.4%.

What about the normalised viability (CAL-85-1 [6]; 30 nM) of the same molecule?
Its normalised viability is 93.7%.

And the normalised viability (CAL-85-1 [6]; 100 nM)?
The normalised viability was 96.7%.

What about the normalised viability (MDA-MB-231 [7]; 10 nM) of the same molecule?
Its normalised viability is 95%.

And the normalised viability (MDA-MB-231 [7]; 1000 nM)?
Its normalised viability is 96.6%.

What about the normalised viability (MDA-MB-231 [7]; 10000 nM) of the same molecule?
The normalised viability was 107%.

What about the normalised viability (HCC1599 [8]; 10 nM) of the same molecule?
The normalised viability was 123%.

What about the normalised viability (HCC1599 [8]; 1000 nM) of the same molecule?
Its normalised viability is 93.3%.

What about the normalised viability (HCC1599 [8]; 10000 nM) of the same molecule?
Its normalised viability is 115%.

And the normalised viability (MDA-MB-453 [9]; 3 nM)?
Its normalised viability is 104%.

What about the normalised viability (MDA-MB-453 [9]; 30 nM) of the same molecule?
The normalised viability was 103%.

And the normalised viability (MDA-MB-453 [9]; 100 nM)?
The normalised viability was 101%.

What about the normalised viability (HCC1143 [10]; 10 nM) of the same molecule?
Its normalised viability is 88%.

What about the normalised viability (HCC1143 [10]; 1000 nM) of the same molecule?
The normalised viability was 94.5%.

And the normalised viability (HCC1143 [10]; 10000 nM)?
Its normalised viability is 99.6%.

And the normalised viability (DU-4475 [11]; 3 nM)?
Its normalised viability is 103%.

What about the normalised viability (DU-4475 [11]; 30 nM) of the same molecule?
Its normalised viability is 97.4%.

And the normalised viability (DU-4475 [11]; 100 nM)?
The normalised viability was 104%.

And the normalised viability (MDA-MB-436 [12]; 10 nM)?
Its normalised viability is 91.8%.

And the normalised viability (MDA-MB-436 [12]; 1000 nM)?
Its normalised viability is 95.8%.

What about the normalised viability (MDA-MB-436 [12]; 10000 nM) of the same molecule?
The normalised viability was 95.6%.

And the normalised viability (CAL-148 [13]; 3 nM)?
Its normalised viability is 84.4%.

And the normalised viability (CAL-148 [13]; 30 nM)?
The normalised viability was 92.6%.

What about the normalised viability (CAL-148 [13]; 100 nM) of the same molecule?
The normalised viability was 91.5%.

What about the normalised viability (BT-474 [14]; 10 nM) of the same molecule?
Its normalised viability is 100%.

And the normalised viability (BT-474 [14]; 1000 nM)?
The normalised viability was 101%.

And the normalised viability (BT-474 [14]; 10000 nM)?
Its normalised viability is 114%.

What about the normalised viability (CAL-51 [15]; 3 nM) of the same molecule?
The normalised viability was 93.9%.

What about the normalised viability (CAL-51 [15]; 30 nM) of the same molecule?
Its normalised viability is 96.1%.

And the normalised viability (CAL-51 [15]; 100 nM)?
Its normalised viability is 92.8%.

What about the normalised viability (HCC1937 [16]; 10 nM) of the same molecule?
Its normalised viability is 99.1%.

What about the normalised viability (HCC1937 [16]; 1000 nM) of the same molecule?
The normalised viability was 82%.

And the normalised viability (HCC1937 [16]; 10000 nM)?
The normalised viability was 92.3%.

What about the normalised viability (HDQ-P1 [17]; 3 nM) of the same molecule?
Its normalised viability is 108%.

What about the normalised viability (HDQ-P1 [17]; 30 nM) of the same molecule?
Its normalised viability is 107%.

And the normalised viability (HDQ-P1 [17]; 100 nM)?
The normalised viability was 44.3%.

What about the normalised viability (MFM-223 [18]; 10 nM) of the same molecule?
The normalised viability was 95.2%.

What about the normalised viability (MFM-223 [18]; 1000 nM) of the same molecule?
The normalised viability was 91.2%.

What about the normalised viability (MFM-223 [18]; 10000 nM) of the same molecule?
Its normalised viability is 93%.

What about the normalised viability (MDA-MB-468 [19]) of the same molecule?
Its normalised viability is 109%.

What about the normalised viability (SK-BR-3 [20]) of the same molecule?
Its normalised viability is 61%.

And the normalised viability (CAL-120 [21])?
Its normalised viability is 91.8%.

And the normalised viability (BT-549 [22])?
Its normalised viability is 78.5%.

And the normalised viability (Hs578T [23])?
The normalised viability was 89%.

And the normalised viability (CAL-85-1 [24])?
Its normalised viability is 110%.

What about the normalised viability (MDA-MB-231 [25]) of the same molecule?
Its normalised viability is 96.6%.

What about the normalised viability (HCC1599 [26]) of the same molecule?
Its normalised viability is 124%.

What about the normalised viability (MDA-MB-453 [27]) of the same molecule?
The normalised viability was 94.6%.

What about the normalised viability (HCC1143 [28]) of the same molecule?
Its normalised viability is 88.6%.

And the normalised viability (DU-4475 [29])?
Its normalised viability is 110%.

And the normalised viability (MDA-MB-436 [30])?
Its normalised viability is 101%.

And the normalised viability (CAL-148 [31])?
The normalised viability was 85%.

And the normalised viability (BT-474 [32])?
Its normalised viability is 107%.

What about the normalised viability (CAL-51 [33]) of the same molecule?
Its normalised viability is 95.6%.

What about the normalised viability (HCC1937 [34]) of the same molecule?
The normalised viability was 103%.

And the normalised viability (HDQ-P1 [35])?
Its normalised viability is 91%.

What about the normalised viability (MFM-223 [36]) of the same molecule?
The normalised viability was 93.3%.
